Assay results taken from patent US20040214799A1, “Cancerous metastasis inhibitors containing carbacyclic phosphatidic acid derivatives” (priority 2001, published 2004).

What was measured:
MM1 cells = test: In vitro invasion assay, LPA-induced invasion of MM1 cells across mesothelial cell monolayer; type: cell-based, rat; details: 25 μM LPA; for invasion suppressing activity on LPA-induced invasion, carba-cPA at low concentration (in words): 0.5 μM, 1 μM or 10 μM carba-cPA
Experimental: The abdomen of a male DONRYU rat (300 g, NIPPON BIO-SUPP. CENTER) was opened aseptically. The thus obtained mesenterium was treated with 0.25% trypsin at 37° C. for 15 minutes, filtrated with a 150 μm stainless mesh, and then centrifuged to collect mesothelial cells. The cells were cultured under conditions of 37° C. and 5% CO2 in a medium which was obtained by adding 10% FBS to Eagle's MEMI (Nissui) supplemented with Eagle's MEM amino acid vitamin medium (Nissui) in a volume twice as great as that of the MEMI. A mesothelial cell monolayer which had reached a confluent density after 1 week of culturing was used for invasion assay.
The MM1 cells, which are highly invasive clones of rat ascites hepatoma cells (AH-130), were established by Mukai et al., (Int. J. Cancer : 81, 918-922 (1999)), and was cultured under the same conditions as those for mesothelial cells.
In vitro invasion assay was developed by Akedo et al (Akedo, H et al., Cancer Res. 46, 2416-2422 (1986)). MM1 cells were multi-layer-cultured on the mesothelial cell layer, which had been grown to reach a confluent density, in the presence of 10% FBS or 25 μM LPA (SIGMA). 25 μM cPA was then added. The cells were cultured under conditions of 37° C. and 5% CO2 for 20 hours, and then fixed with 10% formalin. The number of colonies of MM1 cells that had invaded was counted under a phase-contrast microscope (FIG. 3).
cPA and LPA were ice-cooled in PBS containing 0.1% fatty-acid free BSA (SIGMA), ultrasonicated, emulsified, stored at −20° C., and then used.
0.5 μM, 1 μM and 10 μM carba-cPA were added to MM1 cells, and then in vitro invasion assay was performed similarly to (1-1) in the presence of 25 μM LPA.
The following reagents were respectively added to an in vitro invasion assay system so as to examine their effects on MM1 cell invasion in the presence of 25 μM LPA: Forskolin (Wako) which directly activates adenylate cyclase (cAMP synthase); cholera toxin (CTX) (GIBCO BRL) which prevent the deactivation of G protein (Gs) which activates adenylate cyclase; Bt2cAMP (nacalai tesque) which can pass through the membrane and functions in a manner similar to that of cAMP when it enters the cell; or isobutylmethylxanthine (IBMX, 3-isobutyl-1-methylxanthine) (SIGMA) which inhibits phosphodiesterase (cAMP degrading enzyme).

[1] = General state and body weight of B16-F0 melanoma-bearing mice; type: in vivo; details: for Body weight (g) day 0: day 0, mean ± S.D.; for Body weight (g) day 0 / Body weight (g) day 4 / Body weight (g) day 7 / Body weight (g) day 11 / Body weight (g) day 14: N 6; for Body weight (g) day 4: day 4, mean ± S.D.; for Body weight (g) day 7: day 7, mean ± S.D.; for Body weight (g) day 11: day 11, mean ± S.D.; for Body weight (g) day 14: day 14, mean ± S.D.; for effect on changes in body weight (in words): 0.001-0.008 mg/body i.v., days 0 to 14; for body weight compared with the medium group at each measurement (in words): days 0, 4, 7, 11, 14
Experimental: The mixture was administered via the caudal vein. The number of grafted cells was 5×10^5 cells/body. The dose of the test substance was 0.001, 0.004 or 0.008 mg/body, and the dose of the positive control substance was 0.008 mg/body.
Observation period ranged from days 0 to 14 after the administration of the test substance. Life and death were confirmed every day during this period, and the general state was observed. Body weight measurement was performed twice a week.
The representative value of each test group was denoted as mean±standard deviation (mean±S.D.). Differences in mean values were examined as follows. The number of metastatic nodules was examined by Dunnett's multiple comparison test between the medium group and the cPA-19 group, and between the medium group and the cPA-20 group. The same was examined by the Student's T-test between the medium group and cPA-5 group. The number of metastatic lesions was examined by the Wilcoxon test using the medium group as a control. The number of animals having metastatic nodules or metastatic lesions was examined by Fisher's extract probability test using the medium group as a control. The significance levels were 1% and 5%.

| Compound | invasion suppressing activity on LPA-induced invasion, carba-cPA at low concentration (in words) (MM1 cells) | Body weight (g) day 0 ([1]; 0.001 mg/body i.v.) [g] | Body weight (g) day 4 ([1]; 0.001 mg/body i.v.) [g] | Body weight (g) day 7 ([1]; 0.001 mg/body i.v.) [g] | Body weight (g) day 11 ([1]; 0.001 mg/body i.v.) [g] | Body weight (g) day 14 ([1]; 0.001 mg/body i.v.) [g] | Body weight (g) day 0 ([1]; 0.004 mg/body i.v.) [g] | Body weight (g) day 4 ([1]; 0.004 mg/body i.v.) [g] | Body weight (g) day 7 ([1]; 0.004 mg/body i.v.) [g] | Body weight (g) day 11 ([1]; 0.004 mg/body i.v.) [g] | Body weight (g) day 14 ([1]; 0.004 mg/body i.v.) [g] | Body weight (g) day 0 ([1]; 0.008 mg/body i.v.) [g] | Body weight (g) day 4 ([1]; 0.008 mg/body i.v.) [g] | Body weight (g) day 7 ([1]; 0.008 mg/body i.v.) [g] | Body weight (g) day 11 ([1]; 0.008 mg/body i.v.) [g] | Body weight (g) day 14 ([1]; 0.008 mg/body i.v.) [g] | effect on changes in body weight (in words) [1] | body weight compared with the medium group at each measurement (in words) [1] | suppression of LPA-induced invasion (in words) (MM1 cells; 25 μM cPA derivative, 20 hours) |
| --- | --- | --- | --- | --- | --- | --- | --- | --- | --- | --- | --- | --- | --- | --- | --- | --- | --- | --- | --- |
| carba-ΔPal-cPA [cPA-20] | stronger invasion suppressing activity than cPA-18 | 15.9 ± 0.6 | 15.5 ± 0.3 | 16.1 ± 0.6 | 16.8 ± 0.4 | 17.4 ± 0.6 | 16.0 ± 0.6 | 16.0 ± 0.7 | 16.2 ± 0.6 | 16.9 ± 0.7 | 17.5 ± 0.8 | 15.9 ± 0.5 | 16.1 ± 0.8 | 16.3 ± 0.8 | 17.0 ± 0.9 | 17.7 ± 0.8 | no effect on changes in body weight | no significant difference |  |
| carba-Ole-cPA [cPA-19] | stronger invasion suppressing activity than cPA-18 | 15.9 ± 0.6 | 15.5 ± 0.5 | 15.8 ± 0.7 | 16.5 ± 1.0 | 17.1 ± 1.2 | 15.9 ± 0.6 | 16.0 ± 0.5 | 16.1 ± 0.6 | 16.7 ± 0.6 | 17.6 ± 0.9 | 15.9 ± 0.6 | 15.4 ± 0.5 | 15.9 ± 0.5 | 16.8 ± 0.5 | 17.0 ± 0.4 | no effect on changes in body weight | no significant difference |  |
| CCCCCCCCCCCCCCCC(=O)OC[C@@H]1COP(=O)(O)O1 [cPA-5, Pal-cPA, reference compound] |  |  |  |  |  |  |  |  |  |  |  | 15.9 ± 0.6 | 15.8 ± 0.9 | 16.2 ± 1.0 | 17.0 ± 0.8 | 17.4 ± 1.0 |  | no significant difference | suppressed |
